Data published in ChEMBL document CHEMBL5030536, “Subtle Chemical Changes Cross the Boundary between Agonist and Antagonist: New A3 Adenosine Receptor Homology Models and Structural Network Analysis Can Predict This Boundary” (J Med Chem, 2021).

What was measured:
Adenosine receptor A1 = target: T1, Adenosine receptor A1 (Homo sapiens, UniProt P30542); experiment: Displacement of [3H]R-PIA from recombinant human A1 adenosine receptor expressed in CHO cell membrane incubated for 60 mins by liquid scintillation counting method; type: cell membranes
T1 sequence (P30542 whole entry): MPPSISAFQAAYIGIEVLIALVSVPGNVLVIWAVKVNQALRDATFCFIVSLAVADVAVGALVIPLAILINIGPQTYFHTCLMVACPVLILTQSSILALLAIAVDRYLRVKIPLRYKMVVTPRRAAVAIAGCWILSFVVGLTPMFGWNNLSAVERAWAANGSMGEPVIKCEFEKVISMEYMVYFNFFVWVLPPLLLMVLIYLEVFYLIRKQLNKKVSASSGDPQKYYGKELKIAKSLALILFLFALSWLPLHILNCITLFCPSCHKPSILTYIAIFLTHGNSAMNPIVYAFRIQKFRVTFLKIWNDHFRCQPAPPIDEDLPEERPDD

Adenosine receptor A2a = Adenosine receptor A2a (Homo sapiens, UniProt P29274); experiment: Displacement of [3H]CGS21680 from recombinant human A2A adenosine receptor expressed in HEK293 cells incubated for 60 mins by liquid scintillation counting method; type: cell-based
Adenosine receptor A3 = target: T2, Adenosine receptor A3 (Homo sapiens, UniProt P0DMS8); experiment: Displacement of [125I]AB-MECA from human A3 adenosine receptor expressed in CHO cell membrane incubated for 60 mins by gamma counter method; type: cell membranes
T2 sequence (P0DMS8 whole entry): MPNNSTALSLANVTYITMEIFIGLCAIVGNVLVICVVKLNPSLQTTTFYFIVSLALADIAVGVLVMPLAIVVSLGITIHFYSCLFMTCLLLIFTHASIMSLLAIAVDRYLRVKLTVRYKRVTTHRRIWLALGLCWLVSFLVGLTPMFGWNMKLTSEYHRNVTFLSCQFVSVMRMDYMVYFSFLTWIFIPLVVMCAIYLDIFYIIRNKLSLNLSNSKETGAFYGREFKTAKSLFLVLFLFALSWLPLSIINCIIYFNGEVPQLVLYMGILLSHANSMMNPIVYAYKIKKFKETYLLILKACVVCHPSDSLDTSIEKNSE

Chain of Adenosine receptor A2a (P29274 whole entry): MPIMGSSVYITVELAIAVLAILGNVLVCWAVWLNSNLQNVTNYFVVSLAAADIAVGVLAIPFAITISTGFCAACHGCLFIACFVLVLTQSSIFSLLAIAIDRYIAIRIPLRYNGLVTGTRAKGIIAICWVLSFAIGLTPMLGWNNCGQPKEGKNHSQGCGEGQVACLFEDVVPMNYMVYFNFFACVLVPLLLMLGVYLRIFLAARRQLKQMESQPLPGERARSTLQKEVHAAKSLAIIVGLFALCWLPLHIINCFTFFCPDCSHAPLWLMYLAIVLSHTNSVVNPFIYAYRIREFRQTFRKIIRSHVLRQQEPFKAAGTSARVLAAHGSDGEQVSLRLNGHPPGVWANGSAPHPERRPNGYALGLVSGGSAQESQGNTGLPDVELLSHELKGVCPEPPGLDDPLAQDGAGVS

Ki (Adenosine receptor A1) | Ki (Adenosine receptor A2a) | Ki (Adenosine receptor A3) | SMILES
2200 nM | 2390 nM | 380 nM | N[C@@H]1CS[C@@H](n2cnc3c(NCc4cccc(I)c4)nc(Cl)nc32)[C@@H]1O
1670 nM |  |  | CNc1ncnc2c1ncn2[C@@H]1SC[C@@H](N)[C@H]1O
2450 nM | 2300 nM | 260 nM | N[C@@H]1CS[C@@H](n2cnc3c(NCc4cccc(I)c4)ncnc32)[C@@H]1O
